Structures can show the parent of a compound that is named as a salt.
Key:
[1] = tested on: Human platelet-rich plasma (collagen-induced blood platelet aggregation); assay: Collagen-induced blood platelet aggregation (aggregometer method of BORN); format: cell-based; details: 10 min; human citrated platelet-rich plasma; 37° C., 10 minutes incubation; collagen-fibrils; maximum aggregation velocity as test parameter
Method: Human platelet-rich plasma was obtained by centrifugation from citrated venous blood. The experiments were carried out with suspensions of the test substances in 0.9% sodium chloride. 0.18 ml of citrate plasma were treated with a 10 μl suspension of the test compounds and incubated at 37° C. for 10 minutes, whereupon the aggregation was initiated by the addition of 10 μl of a suspension of collagen-fibrils.

Plasma glucose = assay: Antihyperglycemic activity: plasma glucose concentration after oral glucose load in fasted rats; format: in vivo; details: percentages of the controls, rats fasted 24 hours, 0.3 mmol/kg p.o., glucose 1.6 g/kg orally 100 minutes later, plasma 20 minutes after glucose, averages
Method: Gum arabic (12 control animals) or 0.3 mmol/kg p.o. of test substance (6 experimental animals) is administered to rats (fasted for 24 hours) and 100 minutes later a suspension of 1.6 g of glucose in 10 ml of 5 percent gum arabic is administered orally per kg body weight. The animals are killed 20 minutes after the glucose administration. Plasma is obtained from the heparinized mixed blood. The glucose concentration in the plasma is determined according to the hexokinase method.

SMILES	EC50 [1] [µM]	Plasma glucose concentration (%) (Plasma glucose)	Plasma glucose concentration (%) (Plasma glucose; listed as 2-Phenyl-4,5,7,8-tetrahydro-4,4,8,8-tetramethyl-1-H-thiepino-8 4,5-d]-imidazole , hydrochloride)
CC1(C)CSCC(C)(C)c2[nH]c(-c3ccc4c(c3)OCO4)nc21 [2-(3,4-Methylenedioxyphenyl)-4,5,7,8-tetrahydro-4,4,8,8-tetramethyl-1-H-thiepino[4,5-d]imidazole hydrochloride]	1.2	–	–
CC1(C)CSCC(C)(C)c2[nH]c(-c3ccc(F)cc3)nc21 [2-(p-Fluorophenyl)-4,5,7,8-tetrahydro-4,4,8,8-tetramethyl-1-H-thiepino-[4,5-d]imidazole hydrochloride]	4.7	77	–
COc1ccc(-c2nc3c([nH]2)C(C)(C)CSCC3(C)C)cc1 [2-(p-Methoxyphenyl)-4,5,7,8-tetrahydro-4,4,8,8-tetramethyl-1-H-thiepino-[4,5-d]imidazole hydrochloride]	4.2	–	–
CC1(C)CSCC(C)(C)c2[nH]c(-c3ccccc3)nc21 [2-Phenyl-4,5,7,8-tetrahydro-4,4,8,8-tetramethyl-1-H-thiepino[4,5-d]-imidazole hydrochloride]	0.8	–	67
CC1(C)CSCC(C)(C)c2[nH]c(-c3ccccc3)nc21 [2-phenyl-4,5,7,8-tetrahydro-4,4,8,8-tetramethyl-1-H-thiepino[4,5-d]imidazole]	–	74	–
CC1(C)CSCC(C)(C)c2[nH]c(-c3cccs3)nc21 [4,5,7,8-Tetrahydro-4,4,8,8-tetramethyl-2-(2-thienyl)-1-H-thiepino[4,5-d]-imidazole hydrochloride]	19.7	–	–

Source: US4382945A, “Tetrahydrothiepino[4,5-d]imidazole derivatives, composition and method of use” (Hoffmann-La Roche Inc., priority 1980, dated 1983)
